Results: patent US11459327B1, “Cycloalkyl and hetero-cycloalkyl inhibitors, preparation methods therefor, and use thereof” (Suzhou Zelgen Biopharmaceuticals Co., Ltd., priority 2019, dated 2022)

What follows are compounds tested on NCI-H358(KRAS^G12C mutation) cells (assay: Cell assay of antiproliferative activity (Celltiter-Glo, 5 days) against NCI-H358 cells). Conditions: 5 days incubation.
Assay type: cell-based
Description: Cell assay of antiproliferative activity of compounds against NCI-H358(KRAS^G12C mutation) and A549(KRAS^G12S mutation) cells.
40 μl phosphate buffer was added to the outer wells of the 384 microplate, and 40 μl cell suspension to be tested was added to the other wells. Then the microplate was incubated in a carbon dioxide incubator overnight.
The compounds to be tested were gradiently diluted, each compound was performed 10 concentration gradients (diluted from 50 μM to 0.003 μM) and added 100 nL to the corresponding wells in the microplate. After addition, 40 μl of phosphate buffer was added to each well in rows A and P and columns 1 and 24, and then the microplate was incubated in a carbon dioxide incubator for 5 days.
20 μL of Promega Celltiter-Glo reagent was added to each well of the microplate, and then the luminescence signal was stabilized by oscillating at room temperature for 10 min. Then PekinElmer Envision multi-label analyzer was used to read.
Finally, GraphPad Prism software was used to calculate the IC50 value of the compound and the fitting curve was drawn.
Anti-proliferative activity of the compounds of the present invention against NCI-H358(KRAS^G12C mutation) and A549(KRAS^G12S mutation) cells were shown in Table 1.

Compound | IC50
C=CC(=O)N1CCN(c2nc(OCC3(CN(C)C)CC3)nc3c2CC(C)N(c2cccc4cccc(Cl)c24)C3)CC1CC#N (single isomer, unassigned) [Example 29A, 2-(1-acroloyl-4-(7-(8-chloronaphthalen-1-yl)-2-((1-((dimethylamino)methyl)cyclopropyl)methoxyl)-6-methyl-5,6,7,8-tetrahydropyrido [3,4-d]pyrimidin-4-yl)piperazin-2-yl) acetonitrile] | 360 nM
C=CC(=O)N1CCN(c2nc(OCC3(CN(C)C)CC3)nc3c2CC(C)N(c2cccc4cccc(Cl)c24)C3)CC1CC#N (single isomer, unassigned) [Example 29B, 2-(1-acroloyl-4-(7-(8-chloronaphthalen-1-yl)-2-((1-((dimethylamino)methyl)cyclopropyl)methoxyl)-6-methyl-5,6,7,8-tetrahydropyrido [3,4-d]pyrimidin-4-yl)piperazin-2-yl) acetonitrile] | 53 nM
C=CC(=O)N1CCN(c2nc(OCC3(CN(C)C)CC3)nc3c2CC(C)N(c2cccc4cccc(Cl)c24)C3)CC1CC#N (single isomer, unassigned) [Example 29C, 2-(1-acroloyl-4-(7-(8-chloronaphthalen-1-yl)-2-((1-((dimethylamino)methyl)cyclopropyl)methoxyl)-6-methyl-5,6,7,8-tetrahydropyrido [3,4-d]pyrimidin-4-yl)piperazin-2-yl) acetonitrile] | 100 nM
C=CC(=O)N1CCN(c2nc(OCC3(CN(C)C)CC3)nc3c2CC(C)N(c2cccc4cccc(Cl)c24)C3)CC1CC#N (single isomer, unassigned) [Example 29D, 2-(1-acroloyl-4-(7-(8-chloronaphthalen-1-yl)-2-((1-((dimethylamino)methyl)cyclopropyl)methoxyl)-6-methyl-5,6,7,8-tetrahydropyrido [3,4-d]pyrimidin-4-yl)piperazin-2-yl) acetonitrile] | 6 nM
C=CC(=O)N1CCN(c2nc(OCCN(C)C3(C)CCC3)nc3c2CCN(c2cccc4cccc(Cl)c24)C3)CC1CC#N (stereo not shown) [Example 23, 2-(1-acroloyl-4-(7-(8-chloronaphthalen-1-yl)-2-(2-(methyl(1-methylcyclobutyl)amino)ethoxy)-5,6,7,8-tetrahydropyrido[3,4-d]pyrimidin-4-yl)piperazin-2-yl) acetonitrile] | 13 nM
C=CC(=O)N1CCN(c2nc(OCC3(CNC)CC3)nc3c2CCN(c2cccc4cccc(Cl)c24)C3)CC1CC#N (stereo not shown) [Example 26, 2-(1-acroloyl-4-(7-(8-chloronaphthalen-1-yl)-2-((1-((methylamino)methyl)cyclopropyl)methoxy)-5,6,7,8-tetrahydropyrido[3,4-d]pyrimidin-4-yl)piperazin-2-yl) acetonitrile] | 62 nM

Same assay, conditions: Homo sapiens, NCI-H358, 120 h, 5 days incubation

Compound | IC50
C=C(F)C(=O)N1CCN(c2nc(OCC3(CN(C)C)COC3)nc3c2CCN(c2cccc4cccc(Cl)c24)C3)CC1CC#N (stereo not shown) [Example 25, 2-(4-(7-(8-chloronaphthalen-1-yl)-2-((3-((dimethylamino)methyl)oxetan-3-yl)methoxy)-5,6,7,8-tetrahydropyrido[3,4-d]pyrimidin-4-yl)-1-(2-fluoroacroloyl)piperazin-2-yl) acetonitrile] | 59 nM
C=C(F)C(=O)N1CCN(c2nc(OCC3(CN(C)C)CC3)nc3c2CCN(c2cccc4ccc(F)c(Cl)c24)C3)C[C@@H]1CC#N [Example 28] | 8 nM
C=CC(=O)N1CCN(c2nc(OCC3(N(C)C)CC3)nc3c2CCN(c2cccc4cccc(Cl)c24)C3)CC1CC#N (stereo not shown) [Example 30] | 41 nM
C=CC(=O)N1CCN(c2nc(OCCN(C)C3(COC)CCC3)nc3c2CCN(c2cccc4cccc(Cl)c24)C3)CC1CC#N (stereo not shown) [Example 31, 2-(acroloyl-4-(7-(8-chloronaphthalen-1-yl)-2-(2-((1-(methoxymethyl)cyclobutyl)(methyl)amino)ethoxy)-5,6,7,8-tetrahydropyrido[3,4-d]pyrimidin-4-yl)piperazin-2-yl) acetonitrile] | 73 nM
C=CC(=O)N1CCN(c2nc(OCC3(CN(C)C4CC4)COC3)nc3c2CCN(c2cccc4cccc(Cl)c24)C3)CC1CC#N (stereo not shown) [Example 32, 2-(1-acroloyl-4-(7-(8-chloronaphthalen-1-yl)-2-((3-((cyclopropyl(methyl)amino)methyl)oxetan-3-yl)methoxyl)-5,6,7,8-tetrahydropyrido[3,4-d]pyrimidin-4-yl)piperazin-2-yl) acetonitrile] | 120 nM
C=C(F)C(=O)N1CCN(c2nc(OCCN(C)C3(C)CCC3)nc3c2CCN(c2cccc4ccc(F)c(Cl)c24)C3)CC1CC#N (stereo not shown) [Example 33, 2-(4-(7-(8-chloro-7-fluoronaphthalen-1-yl)-2-(2-(methyl(1-methylcyclobutyl)amino)ethoxy)-5,6,7,8-tetrahydropyrido[3,4-d]pyrimidin-4-yl)-1-(2-fluoroacroloyl)piperazin-2-yl) acetonitrile] | 66 nM
C=CC(=O)N1C[C@@H](C)N(c2nc(OCC3(CN(C)C)CC3)nc3c2CCN(c2cccc4cccc(Cl)c24)C3)C[C@@H]1C [Example 34, 1-((2S,5R)-4-(7-(8-chloronaphthalen-1-yl)-2-((1-((dimethylamino)methyl)cyclopropyl)methoxyl)-5,6,7,8-tetrahydropyrido[3,4-d]pyrimidin-4-yl)-2,5-dimethylpiperazin-1-yl)prop-2-ene-1-one] | 1900 nM
C=C(F)C(=O)N1CCN(c2nc(OCC3(CN(C)C)CC3)nc3c2CCN(c2c(C)ccc4[nH]ncc24)C3)C[C@@H]1CC#N [Example 35] | 310 nM
[2H]C([2H])([2H])N(CC1(COc2nc3c(c(N4CCN(C(=O)C(=C)F)[C@@H](CC#N)C4)n2)CCN(c2c(C)ccc4[nH]ncc24)C3)CC1)C([2H])([2H])[2H] [Example 36] | 250 nM
C=CC(=O)N1[C@@H]2CC[C@H]1CN(c1nc(OCC3(CN(C)C)CC3)nc3c1CCN(c1cccc4cccc(Cl)c14)C3)C2 [Example 37, 1-((1R,5S)-3-(7-(8-chloronaphthalen-1-yl)-2-((1-((dimethylamino)methyl)cyclopropyl)methoxyl)-5,6,7,8-tetrahydropyrido[3,4-d]pyrimidin-4-yl)-3,8-diazabicyclo[3.2.1]octane-8-yl)prop-2-ene-1-one] | 1400 nM
C=CC(=O)N1CC2CN(c3nc(OCC4(CN(C)C)CC4)nc4c3CCN(c3cccc5cccc(Cl)c35)C4)CC2C1 (stereo not shown) [Example 38, 1-(5-(7-(8-chloronaphthalen-1-yl)-2-((1-((dimethylamino)methyl)cyclopropyl)methoxyl)-5,6,7,8-tetrahydropyrido[3,4-d]pyrimidin-4-yl)hexahydropyrrolo[3,4-c]pyrrole-2(1H)-yl)prop-2-ene-1-one] | 4900 nM
C=CC(=O)N1CCN(c2nc(OCC3(CN(C)C)CC3)nc3c2CCN(c2cccc4cccc(Cl)c24)C3)CC12CC2 [Example 39, 1-(7-(7-(8-chloronaphthalen-1-yl)-2-((1-((dimethylamino)methyl)cyclopropyl)methoxyl)-5,6,7,8-tetrahydropyrido[3,4-d]pyrimidin-4-yl)-4,7-diazaspiro[2.5]octane-4-yl)prop-2-ene-1-one] | 2500 nM
C=CC(=O)N1CC2(C1)CN(c1nc(OCC3(CN(C)C)CC3)nc3c1CCN(c1cccc4cccc(Cl)c14)C3)C2 [Example 40, 1-(6-(7-(8-chloronaphthalen-1-yl)-2-((1-((dimethylamino)methyl)cyclopropyl)methoxyl)-5,6,7,8-tetrahydropyrido[3,4-d]pyrimidin-4-yl)-2,6-diazaspiro[3.3]heptane-2-yl)prop-2-ene-1-one] | 300 nM
C=CC(=O)N1CCN(c2nc(OCC3(CN(C)C)CC3)nc3c2CCN(c2cccc4cccc(Cl)c24)C3)CC1C(F)(F)F (stereo not shown) [Example 41, 1-(-4-(7-(8-chloronaphthalen-1-yl)-2-((1-((dimethylamino)methyl)cyclopropyl)methoxyl)-5,6,7,8-tetrahydropyrido[3,4-d]pyrimidin-4-yl)-2-(trifluoromethyl)piperazin-1-yl)prop-2-ene-1-one] | 1400 nM
C=CC(=O)N1CC2CC1CN2c1nc(OCC2(CN(C)C)CC2)nc2c1CCN(c1cccc3cccc(Cl)c13)C2 (stereo not shown) [Example 42, 1-(5-(7-(8-chloronaphthalen-1-yl)-2-((1-((dimethylamino)methyl)cyclopropyl)methoxyl)-5,6,7,8-tetrahydropyrido[3,4-d]pyrimidin-4-yl)-2,5-diazabicyclo[2.2.1]heptane-2-yl)prop-2-ene-1-one] | 5500 nM
C=CC(=O)N1CC2CCC1CN2c1nc(OCC2(CN(C)C)CC2)nc2c1CCN(c1cccc3cccc(Cl)c13)C2 (stereo not shown) [Example 43, 1-(5-(7-(8-chloronaphthalen-1-yl)-2-((1-((dimethylamino)methyl)cyclopropyl)methoxyl)-5,6,7,8-tetrahydropyrido[3,4-d]pyrimidin-4-yl)-2,5-diazabicyclo[2.2.2]octane-2-yl)prop-2-ene-1-one] | 830 nM
C=CC(=O)N1CC2(CCN(c3nc(OCC4(CN(C)C)CC4)nc4c3CCN(c3cccc5cccc(Cl)c35)C4)C2)C1 [Example 44, 1-(6-(7-(8-chloronaphthalen-1-yl)-2-((1-((dimethylamino)methyl)cyclopropyl)methoxyl)-5,6,7,8-tetrahydropyrido[3,4-d]pyrimidin-4-yl)-2,6-diazaspiro[3.4]octane-2-yl)prop-2-ene-1-one] | 3300 nM
[2H]C([2H])([2H])N(CC1(COc2nc3c(c(N4CCN(C(=O)C(=C)F)[C@@H](CC#N)C4)n2)CCN(c2cccc4cccc(Cl)c24)C3)CC1)C([2H])([2H])[2H] [Example 45] | 49 nM
C=C(F)C(=O)N1CCN(c2nc(OCC3(COC)CN(C)C3)nc3c2CCN(c2cccc4cccc(Cl)c24)C3)C[C@@H]1CC#N [Example 46] | 37 nM
